How the values were obtained:
[1] = tested on: Human umbilical vein endothelial cells (HUVECs); experiment: HDL-induced endothelial NO release, DAN assay; format: cell-based; details: HDL 50 μg/ml preincubated 3 h with 10, 20, 50 μg/ml; HUVECs 2 h
Description: HUVECs were stimulated for 2 h with HDL (50 μg/ml) preincubated with DMSO, lyso-DGTS and S1P at final concentrations of 10, 20, and 50 μg/ml for 3 h. Media were then collected and treated with nitrate reductase followed by analysis using the DAN assay. Data are expressed as NO concentration (μM) released by the cells. Each experiment was repeated separately at least three times. *p<0.05, ***p<0.0001 related to the control (HDL without lyso-DGTS or S1P). Statistics were analyzed using one-way annova Graphpad prism 5 software.
Human umbilical vein endothelial cells (HUVECs) were incubated for 2 hours with HDL preincubated with different concentration of lyso-DGTS or S1P for 3 hours, and NO production determined using 2,3-diaminonapthalene (DAN) assay.

rePON1 = details: 25° C.; Cohen et al., 2014; cited from earlier work
J774A.1 macrophages = details: as previously shown; cited from earlier work
PON1 = PON1 (Homo sapiens, UniProt P27169); details: Cohen et al., 2014; cited from earlier work
PON1, sequence (P27169 whole entry, species assumed): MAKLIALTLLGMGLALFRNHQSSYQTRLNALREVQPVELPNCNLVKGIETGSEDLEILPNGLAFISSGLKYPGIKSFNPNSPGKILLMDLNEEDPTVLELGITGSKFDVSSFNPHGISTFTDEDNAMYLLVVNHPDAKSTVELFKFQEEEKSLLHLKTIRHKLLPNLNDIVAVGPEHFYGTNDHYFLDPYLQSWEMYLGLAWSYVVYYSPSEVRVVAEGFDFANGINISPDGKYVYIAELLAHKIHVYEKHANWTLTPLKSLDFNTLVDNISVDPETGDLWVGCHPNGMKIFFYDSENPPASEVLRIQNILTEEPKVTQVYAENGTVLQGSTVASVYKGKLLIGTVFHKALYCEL

Row | Molecule | effect on HDL ability to induce endothelial NO release [1] | Binding constant Ka to PON1 (rePON1) [M⁻¹] | effect on PON1 uptake by macrophage cells (J774A.1 macrophages) | decrease of the ratio between HDL-PON1 and free-PON1 (PON1) [%]
1 | CCCCCCCCCCCCC/C=C/[C@@H](O)[C@@H](N)COP(=O)(O)O [S1P, Sphingosine 1-Phosphate, reference compound] | significantly increased the HDL ability to induce endothelial NO release at a dose dependent manner |  |  | 
2 | PC 16:0 18:2 |  | 1680 | enhance PON1 uptake by macrophage cells | 50

Source: patent US11591288B2, “Compositions and methods for treating atherosclerotic cardiovascular disease” (GAVISH-GALILEE BIO APPLICATIONS LTD., priority 2017, dated 2023)
